Laboratory results as given in patent publication US20140090094A1, “MODULATORS OF SLC22A7” (BAYER INTELLECTUAL PROPERTY GmbH, priority 2011, published 2014).

What was measured:
OAT3h = biological target: T1, OAT3h (Homo sapiens, UniProt Q8TCC7); test: 1 min uptake into 293 cells expressing OAT3h; assay type: cell-based; settings: for clearance: 1 min uptake, 0.1 μmol/l radiotracer
T1 construct: expressed in transfected cells; host or cells: 293 cells (HEK-293)
T1 sequence (Q8TCC7 1-542): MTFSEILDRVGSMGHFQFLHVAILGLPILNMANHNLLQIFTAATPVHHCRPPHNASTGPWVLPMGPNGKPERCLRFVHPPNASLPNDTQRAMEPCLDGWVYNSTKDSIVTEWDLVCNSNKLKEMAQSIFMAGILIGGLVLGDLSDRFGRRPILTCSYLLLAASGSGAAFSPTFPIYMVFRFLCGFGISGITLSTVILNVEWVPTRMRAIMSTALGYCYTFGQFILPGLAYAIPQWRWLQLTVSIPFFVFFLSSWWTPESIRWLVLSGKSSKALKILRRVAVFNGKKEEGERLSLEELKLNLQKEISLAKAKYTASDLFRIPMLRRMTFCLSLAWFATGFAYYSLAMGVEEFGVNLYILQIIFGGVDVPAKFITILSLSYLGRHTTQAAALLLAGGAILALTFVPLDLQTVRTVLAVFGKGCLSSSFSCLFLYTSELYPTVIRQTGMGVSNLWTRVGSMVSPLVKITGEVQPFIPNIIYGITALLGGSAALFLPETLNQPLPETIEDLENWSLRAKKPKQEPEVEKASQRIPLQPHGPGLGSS
Procedure: Uptake was measured at 37° C.

OAT2h mutant E441Q = biological target: T2, OAT2h mutant E441Q (Homo sapiens, UniProt Q9Y694, E443Q); test: uptake by OAT2h mutant E441Q (eGFP chimera) in 293 cells; assay type: cell-based; settings: 1 min, 37° C., 0.1 μmol/l radiolabeled solute
T2 construct: expressed in transfected cells; host or cells: 293 cells (HEK-293), doxycycline-inducible
T2 sequence (Q9Y694 1-546 isoform Q9Y694-2 E441Q): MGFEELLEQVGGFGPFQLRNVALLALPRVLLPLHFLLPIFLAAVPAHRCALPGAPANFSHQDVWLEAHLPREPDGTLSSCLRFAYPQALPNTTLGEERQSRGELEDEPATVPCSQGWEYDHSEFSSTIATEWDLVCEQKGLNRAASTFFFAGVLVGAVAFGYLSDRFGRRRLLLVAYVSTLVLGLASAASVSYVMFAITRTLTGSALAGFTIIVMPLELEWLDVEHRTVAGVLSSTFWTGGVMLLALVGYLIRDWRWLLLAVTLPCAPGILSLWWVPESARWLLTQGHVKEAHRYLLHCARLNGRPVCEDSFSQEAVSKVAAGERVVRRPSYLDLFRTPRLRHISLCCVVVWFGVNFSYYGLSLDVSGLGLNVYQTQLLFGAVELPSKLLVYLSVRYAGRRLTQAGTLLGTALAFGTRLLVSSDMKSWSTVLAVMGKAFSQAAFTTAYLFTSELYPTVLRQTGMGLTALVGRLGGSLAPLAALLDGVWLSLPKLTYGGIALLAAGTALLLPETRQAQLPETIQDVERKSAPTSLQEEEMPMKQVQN
Procedure: 293 cells transfected for expression of eGFP chimera of OAT2h wild-type or OAT2hE441Q in dishes were incubated (1 min, 37° C.) with 0.1 μmol/l radiolabeled solute in uptake buffer, washed, and lysed. Cell lysates were analyzed by liquid scintillation counting.
In transmembrane segment 10, the OAT2 orthologues from human, horse, pig, cattle, rabbit, rat, mouse, opossum, and chicken uniformly contain a glutamate (E441 in OAT2h) that is absent in the related carriers OAT1, OAT3, and SLC22A13. Since in other SLC22 family members transmembrane segment 10 is involved in substrate discrimination (Bacher et al. Biochim Biophys Acta 2009; 1788:2594-2602.), the negative charge of the glutamate side chain could specifically attract the ammonium residue of the glutamate substrate. To test this hypothesis, a mutant of OAT2h was created with glutamine at position 441 (E441 Q); eGFP was attached to the C-terminus to verify unaltered membrane trafficking (FIG. 23). […] It follows that E441 is essential for transport of glutamate. […]

[1] = cited from earlier work

Row | SMILES | transport of glutamate (in words) (OAT3h) | clearance (OAT3h) [μl min-1 mg protein-1] | uptake with mutant E441Q versus wild-type (in words) (OAT2h mutant E441Q) | pKa [1]
1 | N[C@@H](CCC(=O)O)C(=O)O [glutamate] | do not transport | 0.2±0.6 | completely abolished | –
2 | O=C(O)c1cc(=O)[nH]c(=O)[nH]1 [orotic acid] | – | 0.7±0.1 | much reduced, but still evident | ≈ 2.4
